Experimental data published in patent US20040142937A1, “Use of heterocyclic amine-type compounds as neuroprotective agents” (priority 2002, published 2004).

Key:
[1] = test system: rat model of cerebral infarction; conditions: administered before the event; cited from earlier work
rats = assay: 3-acetylpyridine (3-AP) neurotoxicity model in rats; format: in vivo, rat
[2] = sumanirole 1-20 mg/kg PO, given before or after 3-AP, sacrifice 96 hours later, dose-related

CCN(CC)C(=O)N[C@H]1C=C2c3cccc4[nH]cc(c34)C[C@H]2N(C)C1 [Lisuride]
brain edema [1]: reduced
survival time [1]: prolonged

CN[C@@H]1Cc2cccc3[nH]c(=S)n(c23)C1
melting point: 210 to 213 °C

CN[C@@H]1Cc2cccc3[nH]c(=S)n(c23)C1.O=C(O)CC(O)C(=O)O
melting point: 195 to 196 °C

CN[C@@H]1Cc2cccc3[nH]c(=O)n(c23)C1.O=C(O)/C=C\C(=O)O [Sumanirole, (5R)-5-(methylamino)-5,6-dihydro-4H-imidazo[4,5,1-ij]quinolin-2(1H)-one (Z)-2-butenedioate (1:1)]
neuroprotective effects of sumanirole after pretreatment with raclopride (rats; pretreatment with raclopride): did not block
3-AP induced reduction in rotorod performance (rats; sumanirole 1-20 mg/kg PO, given before or after 3-AP, dose-related): significantly attenuated
3-AP induced reduction in cerebellar ATP (rats; [2]): significantly attenuated
3-AP induced reduction in cerebellar cGMP (rats; [2]): significantly attenuated
inferior olive neuronal cell loss produced by 3-AP (rats; sumanirole 1-20 mg/kg PO, neuronal cell counts 96 hours later): significantly reduced
